Assay results reported in ChEMBL document CHEMBL1201862, “PubChem BioAssay data set” (2004).
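Briefly, cells in 96-well plates were exposed to five compound concentrations for 48 h, and endpoints were estimated by linear interpolation. The concentration for 50% growth inhibition is given as GI50.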 Activity calls are given as the source filed them. Cut-off read from the data, not from the text of the source: active = GI50 up to about 1.1 µM and inactive = higher.

Columns and labels:
Experiment in all cases: NCI anticancer screen, dose series, 48 h
ACHN = test system: ACHN
UACC-257 = test system: UACC-257
A549 = test system: A549
SF-539 = test system: SF-539
OVCAR-3 = test system: OVCAR-3
SNB-19 = test system: SNB-19
SNB-75 = test system: SNB-75
SW-620 = test system: SW-620
DMS-273 = test system: DMS-273
SF-295 = test system: SF-295
OVCAR-5 = test system: OVCAR-5
UACC-62 = test system: UACC-62
HOP-18 = test system: HOP-18
SK-OV-3 = test system: SK-OV-3
HOP-62 = test system: HOP-62
HT-29 = test system: HT-29
KM-20L2 = test system: KM-20L2
HCT-116 = test system: HCT-116
HL-60 = test system: HL-60
SK-MEL-2 = test system: SK-MEL-2
K562 = test system: K562
NCI-H226 = test system: NCI-H226
NCI-H460 = test system: NCI-H460
SK-MEL-5 = test system: SK-MEL-5
TK-10 = test system: TK-10
U-251 = test system: U-251
RPMI-8226 = test system: RPMI-8226
MOLT-4 = test system: MOLT-4
OVCAR-4 = test system: OVCAR-4
OVCAR-8 = test system: OVCAR-8
HCC 2998 = test system: HCC 2998
EKVX = test system: EKVX
M14 = test system: M14
CAKI-1 = test system: CAKI-1
IGROV-1 = test system: IGROV-1
Malme-3M = test system: Malme-3M
UO-31 = test system: UO-31
786-0 = test system: 786-0
SR = test system: SR
CCRF-CEM = test system: CCRF-CEM
A498 = test system: A498
KM12 = test system: KM12
SNB-78 = test system: SNB-78
COLO 205 = test system: COLO 205
NCI-H23 = test system: NCI-H23
LOX IMVI = test system: LOX IMVI
SN12C = test system: SN12C
HCT-15 = test system: HCT-15
NCI-H522 = test system: NCI-H522
DLD-1 = test system: DLD-1
M19-MEL = test system: M19-MEL
SF-268 = test system: SF-268
SK-MEL-28 = test system: SK-MEL-28
DMS-114 = test system: DMS-114
HOP-92 = test system: HOP-92
LXFL 529 = test system: LXFL 529
MCF7 = test system: MCF7
RXF 393 = test system: RXF 393

Measured: GI50

O=Cc1ccc2c(c1I)OCO2
> 100 µM: HCT-15
inactive: ACHN > 100 µM | UACC-257 > 100 µM | A549 > 100 µM | SF-539 > 100 µM | OVCAR-3 > 100 µM | SNB-19 > 100 µM | SNB-75 > 100 µM | SW-620 > 100 µM | DMS-273 > 100 µM | SF-295 > 100 µM | OVCAR-5 > 100 µM | UACC-62 > 100 µM | HOP-18 > 100 µM | SK-OV-3 > 100 µM | HOP-62 > 100 µM | HT-29 > 100 µM | KM-20L2 > 100 µM | HCT-116 > 100 µM | HL-60 > 100 µM | SK-MEL-2 > 100 µM | K562 > 100 µM | NCI-H226 > 100 µM | NCI-H460 > 100 µM | SK-MEL-5 > 100 µM | TK-10 > 100 µM | U-251 > 100 µM | RPMI-8226 > 100 µM | MOLT-4 > 100 µM | OVCAR-4 > 100 µM | OVCAR-8 > 100 µM | HCC 2998 > 100 µM | EKVX > 100 µM | M14 > 100 µM | CAKI-1 > 100 µM | IGROV-1 > 100 µM | Malme-3M > 100 µM | UO-31 > 100 µM | 786-0 > 100 µM | SR > 100 µM | CCRF-CEM > 100 µM | A498 > 100 µM | KM12 > 100 µM | SNB-78 > 100 µM | COLO 205 > 100 µM | NCI-H23 > 100 µM | LOX IMVI > 100 µM | SN12C > 100 µM | NCI-H522 > 100 µM | DLD-1 > 100 µM | M19-MEL > 100 µM

C=CCN(C)CN(C)c1nc(N(C)C)nc(N(C)C)n1
inactive: ACHN > 100 µM | UACC-257 > 100 µM | A549 > 100 µM | SF-539 > 100 µM | OVCAR-3 64.6 µM | SNB-19 > 100 µM | SNB-75 44.1 µM | SW-620 36.3 µM | SF-268 > 100 µM | DMS-273 22.3 µM | SF-295 > 100 µM | OVCAR-5 > 100 µM | UACC-62 > 100 µM | HOP-18 > 100 µM | SK-OV-3 > 100 µM | HOP-62 > 100 µM | SK-MEL-28 > 100 µM | HT-29 > 100 µM | KM-20L2 > 100 µM | HCT-116 60.7 µM | HL-60 21.1 µM | SK-MEL-2 > 100 µM | DMS-114 19.7 µM | K562 > 100 µM | NCI-H460 11.8 µM | SK-MEL-5 > 100 µM | TK-10 > 100 µM | U-251 > 100 µM | RPMI-8226 46.6 µM | MOLT-4 > 100 µM | OVCAR-4 79.8 µM | HOP-92 > 100 µM | OVCAR-8 > 100 µM | HCC 2998 53.2 µM | EKVX > 100 µM | M14 50.7 µM | LXFL 529 26.1 µM | CAKI-1 > 100 µM | IGROV-1 > 100 µM | Malme-3M > 100 µM | UO-31 > 100 µM | 786-0 43.9 µM | SR 49.2 µM | CCRF-CEM 33 µM | A498 > 100 µM | KM12 > 100 µM | SNB-78 > 100 µM | COLO 205 86.3 µM | NCI-H23 > 100 µM | LOX IMVI 54 µM | SN12C > 100 µM | NCI-H522 11.2 µM | DLD-1 49.4 µM | M19-MEL > 100 µM
34.3 µM: HCT-15

C[C@]12CC[C@@H]3c4ccc(OC(=O)N(CCCl)CCCl)cc4CC[C@H]3[C@@H]1CC[C@@H]2O [ESTRAMUSTINE]
active: A549 0.025 µM | SNB-19 0.025 µM | SW-620 0.025 µM | SF-268 0.025 µM | MCF7 0.025 µM | OVCAR-5 0.025 µM | SK-OV-3 0.025 µM | HOP-62 0.025 µM | SK-MEL-28 0.025 µM | HT-29 0.025 µM | HL-60 0.025 µM | K562 0.025 µM | HOP-92 0.025 µM | OVCAR-8 0.025 µM | EKVX 0.025 µM | CAKI-1 0.025 µM | IGROV-1 0.025 µM | CCRF-CEM 0.025 µM | SNB-78 0.025 µM | NCI-H23 0.025 µM | SN12C 0.025 µM | DLD-1 0.025 µM | M19-MEL 0.025 µM
0.025 µM: HCT-15
inactive: DMS-273 2.5 µM | HOP-18 6.04 µM | U-251 1.78 µM

CCOC(=O)C(C)Sc1nnc(COc2ccc(Cl)cc2)n1-c1ccccc1 (stereo unspecified)
inactive: ACHN 17.5 µM | UACC-257 23.6 µM | A549 43.7 µM | SF-539 21.4 µM | OVCAR-3 17.4 µM | SNB-19 19.3 µM | SNB-75 30.6 µM | SW-620 14.2 µM | SF-268 18.3 µM | DMS-273 16.4 µM | SF-295 22 µM | OVCAR-5 26.6 µM | UACC-62 17.3 µM | HOP-18 49 µM | SK-OV-3 36.1 µM | HOP-62 21.4 µM | SK-MEL-28 21.3 µM | HT-29 18 µM | KM-20L2 18.5 µM | HCT-116 21.4 µM | HL-60 18.5 µM | SK-MEL-2 13.4 µM | K562 13.6 µM | NCI-H226 21.5 µM | NCI-H460 17.7 µM | SK-MEL-5 21.4 µM | TK-10 27.5 µM | U-251 19.5 µM | RPMI-8226 19.1 µM | OVCAR-4 20.6 µM | HOP-92 20.8 µM | OVCAR-8 23.4 µM | HCC 2998 22.5 µM | EKVX 24.6 µM | M14 16.9 µM | LXFL 529 16.4 µM | RXF 393 22.9 µM | CAKI-1 16.2 µM | IGROV-1 26.8 µM | Malme-3M 25.8 µM | UO-31 14.7 µM | 786-0 29.6 µM | CCRF-CEM 14.5 µM | KM12 21 µM | SNB-78 26.1 µM | COLO 205 18.4 µM | NCI-H23 20.1 µM | LOX IMVI 14.3 µM | SN12C 17.9 µM | NCI-H522 1.82 µM | DLD-1 19.8 µM | M19-MEL 19.1 µM
14.7 µM: HCT-15
